One assay deals with NFAT. Put plainly: TCR-NFAT (luciferase-based reporter assay). Format: cell-based. Conditions: Homo sapiens; 50% inhibition concentration class. As for the experimental part: Jurkat T cells are transiently transfected with a DNA plasmid encoding Firefly luciferase under the transcriptional control of an appropriate regulatory element that may include multimerized NFAT, AP-1, NFκB, or CREB binding sites. Cells are co-transfected with a DNA plasmid encoding Renilla luciferase under the transcriptional control of a constitutive regulatory element (e.g., HSV-TK promoter). 24 hours following transfection, cells are collected and re-seeded in 96-well plates at a final density of 1.0×10^6 cells/ml in 150 ul assay medium. Test compounds may be included at a final concentration of ≤20 uM and generally pre-incubated with cells for 30 minutes prior to stimulation. An appropriate stimulus is added, including but not limited to, a) phorbol myristate acetate (PMA) and ionomycin, or b) stimulatory antibodies to the TCR complex (e.g., anti-CD3ε) and CD28. Cell cultures are stimulated for 4-6 hours in a humidified incubator (37 degrees C./5% CO2). Cells are than lysed and the level of Firefly luciferase and Renilla Luciferase activity is determined using a standard assay (e.g., Promega's Dual Luciferase Reporter Assay System) and plate-reading luminometer. The ratio obtained by dividing activation induced Firefly luciferase activity by the constitutive Renilla luciferase activity is calculated and used as a quantitative measurement of cell activation.
Jurkat T cells were transiently transfected with a DNA plasmid encoding Firefly luciferase under the transcriptional control of an appropriate regulatory element that may include multimerized NFAT, AP-1, NFκB, or CREB binding sites. Cells were co-transfected with a DNA plasmid encoding Renilla luciferase under the transcriptional control of a constitutive regulatory element (e.g., HSV-TK promoter). 24 hours following transfection, cells were collected and re-seeded in 96-well plates at a final density of 1.0×10^6 cells/ml in 150 ul assay medium. Compound 413 was included at a final concentration of ≤20 uM and pre-incubated with cells for 30 minutes prior to stimulation. Mitogens PMA and ionomycin were added. Cell cultures were stimulated for 4-6 hours in a humidified incubator (37° C./5% CO2). Cells were then lysed and the level of Firefly luciferase and Renilla Luciferase activity was determined using a standard assay (e.g., Promega's Dual Luciferase Reporter Assay System) and plate-reading luminometer. The ratio obtained by dividing activation induced Firefly luciferase activity by the constitutive Renilla luciferase activity was calculated and used as a quantitative measurement of cell activation.

A further assay has as its system IL-2. The assay can be described thus: PHA-IL2 (cell activation and cytokine analysis). In kind it is cell-based. Conditions: 50% inhibition concentration class. The method, boiled down: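 Cells were seeded in 96-well plates at 1.0-2.0×10^6 cells/ml in 150 ul of RPMI containing 0.5% fetal calf serum. Test compounds, at up to ≤20 uM, were preincubated with the cells for 30 minutes, then phytohemagglutinin (PHA) was added and cultures were stimulated for 24-48 hours at 37 degrees C./5% CO2. Supernatant IL-2 was then quantified by standard ELISA.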

Some results are limits rather than exact numbers.

A word on the IC50: it is the concentration needed to halve the response being measured. A lower IC50 goes with higher potency. In turn, `O=C(COc1c(F)cccc1-c1ccccc1)N1CCC(CCc2ccc(F)cc2)CC1` [Compound 136] showed an IC50 with NFAT of 10 to 50 µM. Consider `CC(C)(C)NC(=O)c1ccc(CCC2CCN(C(=O)COc3ccccc3-c3ccccc3)CC2)cc1` [Compound 149], for which the half-inhibitory concentration (IC50) in the assay with NFAT was 1 to 10 µM.

Take `O=C(COc1ccc(F)cc1-c1ccccc1)N1CCC(CCc2ccc3c(c2)OCO3)CC1` [Compound 152]: the half-inhibitory concentration (IC50) in the assay with NFAT was 10 to 50 µM. Still for that read-out and setting: the value for `O=C(COc1ccccc1-c1ccccc1)N1CCC(CCc2cccc(F)c2)CC1` [Compound 130] was 10 to 50 µM; that for `O=C(COc1cc(F)ccc1-c1ccccc1)N1CCC(CCc2ccc3c(c2)OCO3)CC1` [Compound 151] was 10 to 50 µM; that for `COc1ccc(CCC2CCN(C(=O)COc3ccccc3-c3ccccc3)CC2)cc1OC` [Compound 109] was 1 to 10 µM. The compound `CCCC(Oc1ccccc1-c1ccccc1)C(=O)N1CCC(CCc2ccc(OC)c(OC)c2)CC1` (centres unmarked) [Compound 145] came in with a 50% inhibitory concentration (IC50) in the assay with NFAT of 1 to 10 µM. Turning to `O=C(COc1ccccc1-c1ccccc1)N1CCC(CCc2cccc(C(F)(F)F)c2)CC1` [Compound 127], in the assay with NFAT, the IC50 was in the range of 10 to 50 µM. In the assay with NFAT, `COc1ccc(CCC2CCN(C(=O)COc3cc(F)c(F)cc3-c3ccccc3)CC2)cc1OC` [Compound 142] returned an IC50 of 1 to 10 µM. Turning to `O=C(COc1ccccc1-c1ccccc1)N1CCC(CCc2ccc(F)cc2)CC1` [Compound 107], the half-inhibitory concentration (IC50) with NFAT was in the range of 10 to 50 µM. Same read-out and setting: the value for `COc1ccc(CCC2CCN(C(=O)COc3c(C)cccc3-c3ccccc3)CC2)cc1OC` [Compound 138] was 1 to 10 µM; that for `COc1ccc(CCC2CCN(C(=O)COc3c(F)cccc3-c3ccccc3)CC2)cc1OC` [Compound 133] was 10 to 50 µM; that for `O=C(COc1ccccc1-c1ccccc1)N1CCC(CCc2cccc(CO)c2)CC1` [Compound 131] was 10 to 50 µM. With `O=C(O)c1ccc(CCC2CCN(C(=O)COc3ccccc3-c3ccccc3)CC2)cc1` [Compound 110], the IC50 in the assay with NFAT was 10 to 50 µM. In turn, `Cc1cccc(-c2ccccc2)c1OCC(=O)N1CCC(CCc2ccc(F)cc2)CC1` [Compound 140] came in with an IC50 with NFAT of 10 to 50 µM. Regarding `Cc1ccc(F)cc1CCC1CCN(C(=O)COc2ccccc2-c2ccccc2)CC1` [Compound 113], the 50% inhibitory concentration (IC50) with NFAT lay in the range of 1 to 10 µM. `Cc1cc(OC(F)(F)F)ccc1CCC1CCN(C(=O)COc2ccccc2-c2ccccc2)CC1` [Compound 116]: the IC50 with NFAT lay in the range of 10 to 50 µM. The compound `O=C(COc1cc(F)c(F)cc1-c1ccccc1)N1CCC(CCc2cc(F)cc(F)c2)CC1` [Compound 143] registered a half-inhibitory concentration (IC50) with NFAT of 10 to 50 µM. The compound `O=C(COc1ccccc1-c1ccccc1)N1CCC(CCc2cc(F)ccc2F)CC1` [Compound 123] showed an IC50 in the assay on NFAT of 10 to 50 µM. In the assay on NFAT, `O=C(NCc1ccncc1)c1ccc(CCC2CCN(C(=O)COc3ccccc3-c3ccccc3)CC2)cc1` [Compound 104] returned a half-maximal inhibitory concentration (IC50) of 1 to 10 µM. Still for that read-out and setting: the value for `O=C(NCc1cccnc1)c1ccc(CCC2CCN(C(=O)COc3ccccc3-c3ccccc3)CC2)cc1` [Compound 103] was 1 to 10 µM; that for `O=C(COc1ccccc1-c1ccccc1)N1CCC(CCc2ccccc2OC(F)(F)F)CC1` [Compound 122] was 10 to 50 µM; that for `O=C(COc1cc(OC(F)(F)F)ccc1-c1ccccc1)N1CCC(CCc2ccc3c(c2)OCO3)CC1` [Compound 150] was 10 to 50 µM.

`O=C(COc1ccccc1-c1ccccc1)N1CCC(CCc2cc(F)cc(F)c2)CC1` [Compound 106] showed a 50% inhibitory concentration (IC50) with NFAT of 1 to 10 µM.

For the compound `COc1ccc(CCC2CCN(C(=O)COc3c(C)cccc3-c3ccccc3)CC2)cc1` [Compound 139], the 50% inhibitory concentration (IC50) in the assay on NFAT was 10 to 50 µM. For `O=C(CCc1cc2c(cc1-c1ccccc1)OCO2)N1CCC(CCc2ccc(O)cc2)CC1` [Compound 132], the IC50 with NFAT was 10 to 50 µM.

`COc1ccc(CCC2CCN(C(=O)COc3ccccc3-c3ccccc3)CC2)c(OC)c1` [Compound 119] returned a concentration for half-maximal inhibition (IC50) with NFAT of 1 to 10 µM.

`O=C(COc1c(F)cccc1-c1ccccc1)N1CCC(CCc2cc(F)cc(F)c2)CC1` [Compound 135] yielded an IC50 in the assay with NFAT of 10 to 50 µM. `O=C(COc1ccccc1-c1ccccc1)N1CCC(CCc2ccc(N3CCOCC3)cc2)CC1` [Compound 112] came in with a half-maximal inhibitory concentration (IC50) in the assay with NFAT of 1 to 10 µM.

In turn, `O=C(NCc1ccccn1)c1ccc(CCC2CCN(C(=O)COc3ccccc3-c3ccccc3)CC2)cc1` [Compound 102] came in with an IC50 in the assay on NFAT of 1 to 10 µM. Same read-out and setting: the value for `CN(C)C(=O)c1ccc(CCC2CCN(C(=O)COc3ccccc3-c3ccccc3)CC2)cc1` [Compound 147] was 1 to 10 µM; that for `O=C(COc1ccccc1-c1ccccc1)N1CCC(CCc2ccc(OC(F)(F)F)cc2)CC1` [Compound 115] was 1 to 10 µM. With `COc1ccc(CCC2(O)CCN(C(=O)COc3ccc(F)cc3-c3ccccc3)CC2)cc1` [Compound 176], in the assay with IL-2, the concentration for half-maximal inhibition (IC50) fell in the range of 10000 to 50000 nM.

Compound `Cc1cnc(CCC2CCN(C(=O)COc3ccc(C#N)cc3-c3ccc(C#N)cc3)CC2)cn1` [Compound 426] came in with an IC50 with IL-2 of 1000 to 10000 nM. The compound `COc1cccc(CCC2CCN(C(=O)CCc3ccccc3-c3ccc(C#N)cc3)CC2)c1` [Compound 227] showed an IC50 in the assay on IL-2 of 1000 to 10000 nM. On the same count and under the same terms, the figure for `O=C(O)c1cncc(-c2ccccc2OCC(=O)N2CCC(CCc3ccc4c(c3)OCO4)CC2)c1` [Compound 196] is 10000 to 50000 nM; for `O=C(COc1ccccc1-c1ccc(F)cc1)N1CCC(CCc2ccc(O)cc2)CC1` [Compound 280] it is less than 1000 nM; for `COc1ccccc1CCC1CCN(C(=O)COc2ccccc2-c2ccccc2)CC1` [Compound 126] it is 1000 to 10000 nM. For the compound `COc1ccc(-c2ccccc2OCC(=O)N2CCC(CCc3ccc4c(c3)OCO4)CC2)cc1` [Compound 189], the half-maximal inhibitory concentration (IC50) in the assay on IL-2 was 1000 to 10000 nM. The compound `O=C(COc1cccnc1-c1ccc(F)cc1O)N1CCC(CCc2ccc3c(c2)OCCO3)CC1` [Compound 337] returned a concentration for half-maximal inhibition (IC50) in the assay with IL-2 of less than 1000 nM. `Cc1cc2c(cc1CCC1CCN(C(=O)COc3ccccc3-c3ccc(C#N)cc3)CC1)OCO2` [Compound 298] returned an IC50 with IL-2 of less than 1000 nM.

The compound `Cc1cccc(-c2ccccc2)c1OC(C)C(=O)N1CCC(CCc2cc(F)cc(F)c2)CC1` (centres unmarked) [Compound 229] had an IC50 in the assay with IL-2 of 1000 to 10000 nM.

Consider `COc1cccc(CCC2CCN(C(=O)COc3ccc(S(=O)(=O)NC(C)C)cc3-c3ccc(F)cc3O)CC2)c1` [Compound 389], for which the IC50 in the assay with IL-2 was in the range of 1000 to 10000 nM. With `O=C(COc1ccccc1-c1ccc(Cl)nc1)N1CCC(CCc2ccc3c(c2)OCCO3)CC1` [Compound 292], the half-maximal inhibitory concentration (IC50) in the assay on IL-2 was 1000 to 10000 nM. `CCCCOc1cccc(-c2ccccc2OCC(=O)N2CCC(CCc3ccc4c(c3)OCO4)CC2)c1` [Compound 246]: the IC50 in the assay with IL-2 lay in the range of 1000 to 10000 nM. `Cc1cnc(-c2ccccc2OCC(=O)N2CCC(CCc3ccccc3)CC2)cn1` [Compound 424]: the IC50 with IL-2 lay in the range of 1000 to 10000 nM. As for `C#Cc1ccc(-c2ccccc2OCC(=O)N2CCC(CCc3ccc4c(c3)OCO4)CC2)cc1` [Compound 250], in the assay on IL-2, the IC50 was less than 1000 nM. As for `N#Cc1ccc(-c2ccccc2OCC(=O)N2CCC(CCc3ccc4c(c3)OCO4)CC2)c(F)c1` [Compound 251], in the assay with IL-2, the IC50 is less than 1000 nM. On to `N#Cc1ccc(-c2ccccc2CCC(=O)N2CCC(CCc3cc(F)cc(F)c3)CC2)cc1` [Compound 226], for which the IC50 with IL-2 fell in the range of 1000 to 10000 nM. The same measure, in the same setting: the value for `O=C(COc1cccnc1-c1ccc(F)cc1O)N1CCC(CCc2ccc(OCCN3CCOCC3)cc2)CC1` [Compound 358] was 1000 to 10000 nM; that for `CC(C)Oc1cccc(CCC2CCN(C(=O)COc3ccc(C#N)cc3-c3ccc(F)cc3O)CC2)c1` [Compound 399] was less than 1000 nM; that for `CC(C)Oc1ccc(CCC2CCN(C(=O)COc3ccccc3-c3ccc(F)cc3O)CC2)cc1` [Compound 432] was less than 1000 nM.

As to `N#Cc1ccc(OCC(=O)N2CCC(CCc3cccc(OC4CCCC4)c3)CC2)c(-c2ccc(F)cc2O)c1` [Compound 409], the half-maximal inhibitory concentration (IC50) in the assay with IL-2 is less than 1000 nM. The compound `N#Cc1ccc(-c2ccccc2CCC(=O)N2CCC(CCc3ccc4c(c3)OCO4)CC2)cc1` [Compound 225] yielded an IC50 with IL-2 of 1000 to 10000 nM. As for `COc1cccc(CCC2CCN(C(=O)COc3cccnc3-c3ccc(C#N)cc3)CC2)c1` [Compound 361], the IC50 in the assay on IL-2 was in the range of 1000 to 10000 nM.

In the assay on IL-2, `CCCC(Oc1ccccc1-c1ccccc1)C(=O)N1CCC(CCc2ccc3c(c2)OCO3)CC1` (centres unmarked) [Compound 154] displayed a half-maximal inhibitory concentration (IC50) of 10000 to 50000 nM. For `CC1Oc2ccc(CCC3CCN(C(=O)COc4ccccc4-c4ccccc4O)CC3)cc2OC1C` (centres unmarked) [Compound 278], the IC50 with IL-2 is less than 1000 nM. Compound `O=C(COc1cccnc1-c1ccc(F)cc1O)N1CCC(CCc2ccncc2)CC1` [Compound 397] yielded a 50% inhibitory concentration (IC50) in the assay with IL-2 of 1000 to 10000 nM.

Compound `N#Cc1ccc(OCC(=O)N2CCC(CCc3cccc4ccccc34)CC2)c(-c2ccc(F)cc2O)c1` [Compound 401] had an IC50 with IL-2 of less than 1000 nM.
